Source: patent US5674905A, “Bicyclooctane and bicycloheptane derivatives” (James Black Foundation Limited, priority 1992, dated 1997)

Each compound was assayed against T1, CCKB receptor (Mus musculus, UniProt P56481) (assay: radioligand binding assay at the CCKB receptor in mouse cortical membranes ([125I]-CCK8S)). Settings: 150 min at 21±3°.
T1 construct: The cortex was dissected, weighed and homogenised in 40 ml ice-cold buffer; from tissue; host or cells: cerebral cortex membranes of male CD1 mice (Charles River)
T1 sequence (P56481 1-453): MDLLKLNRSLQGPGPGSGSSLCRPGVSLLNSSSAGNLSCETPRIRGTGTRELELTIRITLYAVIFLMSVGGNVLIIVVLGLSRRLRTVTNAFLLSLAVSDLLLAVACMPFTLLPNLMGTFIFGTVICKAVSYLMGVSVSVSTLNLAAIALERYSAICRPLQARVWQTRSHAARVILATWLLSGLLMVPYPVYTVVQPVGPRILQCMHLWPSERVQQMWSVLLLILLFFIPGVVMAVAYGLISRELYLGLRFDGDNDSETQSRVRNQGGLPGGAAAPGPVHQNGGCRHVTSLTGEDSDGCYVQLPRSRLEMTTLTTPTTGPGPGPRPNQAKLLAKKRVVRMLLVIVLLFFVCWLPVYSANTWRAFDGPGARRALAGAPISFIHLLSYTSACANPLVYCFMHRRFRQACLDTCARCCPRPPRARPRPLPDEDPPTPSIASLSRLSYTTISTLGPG
Description: The compounds of the examples were tested for binding at the CCKB receptor in mouse cortical membranes by means of a radioligand binding assay. The procedure was as follows:
The whole brains from male mice (CD1 22-25 g; Charles River) were removed and placed in ice-cold buffer (pH7.2 @ 21±3 °) of the following composition (mM); 10 HEPES, 130 NaCl, 4.7 KCl, 5 MgCl2, 1 EDTA and containing 0.25 g.1^-1 bacitracin. The cortex was dissected, weighed and homogenised in 40 ml ice-cold buffer using a Teflon-in-glass homogeniser. The homogenate was centrifuged at 39,800 g for 20 min at @ 4°, the supernatant discarded and the pellet resuspended by homogenisation in fresh buffer. The homogenate was recentrifuged (39,800 g; 20 min @4°) and the final pellet was resuspended in HEPES buffer to give a tissue concentration of 2 mg.ml^-1 (original wet weight).
The membranes ([…]) were incubated for 150 min at 21±3° in a final volume of 0.5 ml with HEPES buffer containing [^125 I]-CCK8S (0.05 ml; 200 pM NEN 2200 Ci.mmol^-1) and competing compound. Total and non-specific binding of [^125 I]-CCK8S were defined using 0.05 ml of buffer and 0.05 ml of […] L-365,260, respectively. The assay was terminated by rapid filtration through pre-soaked Whatman GF/B filters using a Brandell Cell harvester. The filters were washed (3×3 ml) with ice-cold 50 mM Tris-HC1 (pH7.4 @ 4° C.) and bound radioactivity determined by counting (1 min.) in a gamma-counter.

| CCKB pKi | SMILES |
| --- | --- |
| 5.5 | O=C(NCC12CC3CC(CC(C3)C1)C2)C1C2CC(c3ccccc32)C1C(=O)N1CCC[C@@H]1C(=O)O (mixture of isomers) [Example 59, (±)-endo-cis-6-(2R-carboxy-pyrrolidinocarbonyl)-7-(1-adamantylmethylaminocarbonyl)-2,3-benzobicyclo[2.2.1]heptane] |
| 5.6 | O=C(O)CNC(=O)[C@@H]1CCCN1C(=O)C1C2CCC(c3ccccc32)C1C(=O)NCC12CC3CC(CC(C3)C1)C2 (stereo partly drawn) [Example 45, cis-exo-7-(2R-carboxymethylaminocarbonylpyrrolidinocarbonyl)-8-(1-adamantylmethylaminocarbonyl)-2,3-benzobicyclo[2.2.2]octane] |

Same assay, conditions: 150 min at 21±3°, read-out: CCKB pKi (converted)

| Ki [nM] | SMILES |
| --- | --- |
| 15800 | O=C(NCC12CC3CC(CC(C3)C1)C2)C1C2C=CC(CC2)C1C(=O)N1CCC[C@@H]1C(=O)O (mixture of isomers) [Example 33, cis-(±)-2-(1-R-carboxy-pyrrolidinocarbonyl)-3-(1-adamantylmethylaminocarbonyl)-bicyclo[2.2.2]oct-5-ene] |
| 1580 | O=C(NCC12CC3CC(CC(C3)C1)C2)C1C(C(=O)N2CCC[C@@H]2C(=O)O)C2C=CC1C2(c1ccccc1)c1ccccc1 (mixture of isomers) [Example 53] |
| 316 | O=C(O)C1C2c3ccccc3C(c3cc4ccccc4cc32)C1C(=O)NCC12CC3CC(CC(C3)C1)C2 (racemic) [Example 14, endo and exo cis-(±)-8-(1-adamantylmethylaminocarbonyl)-2,3-benzo-5,6-(2,3-naphtho)bicyclo[2.2.2]octane-7-carboxylic acid] |
| 158 | O=C(NCC12CC3CC(CC(C3)C1)C2)C1C2c3ccccc3C(c3cc4ccccc4cc32)C1C(=O)N1CCC[C@@H]1C(=O)O (stereo partly drawn) [Example 20, endo and exo cis-7-(2-R-carboxypyrrolidinocarbonyl)-8-(1-adamantylmethylaminocarbonyl)-2,3-benzo-5,6-(2,3-naphtho)bicyclo[2.2.2]octane] |
| 398 | COC(=O)[C@@H]1CCCN1C(=O)C1C2c3ccccc3C(c3cc4ccccc4cc32)C1C(=O)NCC12CC3CC(CC(C3)C1)C2 (stereo partly drawn) [Example 21, endo and exo cis-7-(2-S-methoxy-carbonylpyrrolidinocarbonyl)-8-(1-adamantylmethylaminocarbonyl)-2,3-benzo-5,6-(2,3-naphtho) bicyclo-[2.2.2]octane] |
| 2000 | O=C(NCC12CC3CC(CC(C3)C1)C2)C1C2C=CC(c3ccccc32)C1C(=O)N1C[C@H](O)C[C@@H]1C(=O)O (stereo partly drawn) [Example 28, endo-cis-7-(2-R-carboxy-4-R-hydroxy-pyrrolidinocarbonyl)-8-(1-adamantylmethylaminocarbonyl)-5,6-benzo-bicyclo[2.2.2]oct-2-ene] |
| 316 | COC(=O)[C@H]1CCCN1C(=O)C1C2C=CC(c3ccccc32)C1C(=O)NCC12CC3CC(CC(C3)C1)C2 (stereo partly drawn) [Example 32, exo-cis-7-(2-R-methoxycarbonyl-pyrrolidinocarbonyl)-8-(1-adamantylmethylaminocarbonyl)-5,6-benzo-bicyclo[2.2.2]oct-2-ene] |
| 7940 | C[C@H](NC(=O)[C@H]1CCCN1C(=O)C1C2CCC(c3ccccc32)C1C(=O)NCC12CC3CC(CC(C3)C1)C2)C(=O)O (stereo partly drawn) [Example 40, cis-exo-7-(2R-(1S-carboxyethylaminocarbonyl)-pyrrolidinocarbonyl)-8-(1-adamantylmethylaminocarbonyl)-2,3-benzobicyclo-[2.2.2.]octane] |
| 1000 | C[C@@H](NC(=O)[C@@H]1CCCN1C(=O)C1C2CCC(c3ccccc32)C1C(=O)NCC12CC3CC(CC(C3)C1)C2)C(=O)O (stereo partly drawn) [Example 44, cis-exo-7-(2S-(1R-carboxyethylaminocarbonyl)-pyrrolidinocarbonyl)-8-(1-adamantylmethylaminocarbonyl)-2,3-benzobicyclo[2.2.2]octane] |
| 398 | O=C(O)CNC(=O)[C@H]1CCCN1C(=O)C1C2CCC(c3ccccc32)C1C(=O)NCC12CC3CC(CC(C3)C1)C2 (stereo partly drawn) [Example 46, cis-endo-7-(2R-carboxymethylaminocarbonyl-pyrrolidinocarbonyl)-8-(1-adamantylmethylaminocarbonyl)-2,3-benzobicyclo[2.2.2]octane] |
| 1260 | C[C@@H](NC(=O)[C@H]1CCCN1C(=O)C1C2CCC(c3ccccc32)C1C(=O)NCC12CC3CC(CC(C3)C1)C2)C(=O)O (stereo partly drawn) [Example 47, cis-endo-7-(2R-(1R-carboxyethylaminocarbonyl)-pyrrolidinocarbonyl)-8-(1-adamantylmethylaminocarbonyl)-2,3-benzobicyclo[2.2.2]octane] |
| 794 | C[C@H](NC(=O)[C@H]1CCCN1C(=O)C1C2CCC(c3ccccc32)C1C(=O)NCC12CC3CC(CC(C3)C1)C2)C(=O)O (stereo partly drawn) [Example 48, cis-endo-7-(2R-(1S-carboxyethylaminocarbonyl)-pyrrolidinocarbonyl)-8-(1-adamantylmethylaminocarbonyl)-2,3-benzobicyclo[2.2.2]octane] |
| 3980 | O=C(O)CNC(=O)[C@@H]1CCCN1C(=O)C1C2CCC(c3ccccc32)C1C(=O)NCC12CC3CC(CC(C3)C1)C2 (stereo partly drawn) [Example 49, cis-endo-7-(2S-carboxymethylaminocarbonyl-pyrrolidinocarbonyl)-8-(1-adamantylmethylaminocarbonyl)-2,3-benzobicyclo[2.2.2]octane] |
| 2510 | C[C@@H](NC(=O)[C@@H]1CCCN1C(=O)C1C2CCC(c3ccccc32)C1C(=O)NCC12CC3CC(CC(C3)C1)C2)C(=O)O (stereo partly drawn) [Example 50, cis-endo-7-(2S-(1R-carboxyethylaminocarbonyl)-pyrrolidinocarbonyl)-8-(1-adamantylmethylaminocarbonyl)-2,3-benzobicyclo[2.2.2]octane] |

| SMILES | Ki [nM] |
| --- | --- |
| O=C(O)C1C2CC(c3ccccc32)C1C(=O)NCC12CC3CC(CC(C3)C1)C2 (mixture of isomers) [Example 57, endo-cis-(±)-7-(1-adamantylmethylaminocarbonyl)-2,3-benzobicyclo[2.2.1]hept-6-carboxylic acid] | 5010 |
| O=C(NCC12CC3CC(CC(C3)C1)C2)[C@@H]1[C@H](C(=O)O)[C@@H]2C=C[C@H]1c1ccccc12 (relative stereo) [Example 1, exo-(±)-cis-8-(1-adamantylmethylaminocarbonyl)-5,6-benzobicyclo[2.2.2]oct-2-ene-7-carboxylic acid] | 3980 |
| O=C(NCC1CCCCC1)[C@@H]1[C@H](C(=O)O)[C@@H]2C=C[C@H]1c1ccccc12 (relative stereo) [Example 3, exo-(±)-cis8-(1-cyclohexylmethylaminocarbonyl)-5,6-benzobicyclo[2.2.2]oct-2-ene-7-carboxylic acid] | 25100 |
| O=C(O)[C@@H]1[C@H](C(=O)NCC2CCCCC2)[C@H]2C=C[C@@H]1c1ccccc12 (relative stereo) [Example 4, endo-(±)-cis-8-(1-cyclohexylmethylaminocarbonyl)-5,6-benzobicyclo[2.2.2]oct-2-ene-7-carboxylic acid] | 39800 |
| CCCCCCCCNC(=O)[C@@H]1[C@H](C(=O)O)[C@@H]2C=C[C@H]1c1ccccc12 (relative stereo) [Example 5, exo-(±)-cis-8-(octylaminocarbonyl)-5,6-benzobicyclo[2.2.2]oct-2-ene-7-carboxylic acid] | 12600 |
| CCCCCCCCNC(=O)[C@H]1[C@@H](C(=O)O)[C@@H]2C=C[C@H]1c1ccccc12 (relative stereo) [Example 6, endo-(±)-cis-8-(octylamino-carbonyl)-5,6-benzobicyclo[2.2.2]oct-2-ene-7-carboxylic acid] | 25100 |
